How the values were obtained:
CHK1 = CHK1 (Homo sapiens, UniProt O14757); assay: In vitro inhibition of a panel of kinases; assay type: biochemical; conditions: 20 μM
Description: (§1) Effect of compounds on HCV replication. […] Cytotoxicity assays. […] Oligonucleotide profiling of target engagement in vitro. […] Primers can be found in Table 4. […] Inhibition of kinases. […] . Figure S7C).

[1] = test system: WT SLI RNA (HCV SL I model); assay: Oligonucleotide profiling of target engagement in vitro (RNase H cleavage); assay type: biochemical, Hepatitis C virus; conditions: antisense oligonucleotide and RNase H
Description: Compound 8 binds the desired site in HCV RNA in vitro and in cells. To validate that the lead compounds bind to the desired site in the HCV RNA genome, an approach to profile binding site by using an antisense oligonucleotide was developed (FIG. 8A). Antisense oligonucleotides bind to complementary RNAs and recruit RNase H, which cleaves the RNA strand. Upon small molecule binding, the RNA's structure is stabilized, making it more difficult for the oligonucleotide to invade the structure. Thus, small molecule binding sites can be read out by inhibition of oligonucleotide cleavage. For in vitro studies, a small segment of the target site was transcribed that folds into the desired structure.
(§2) Application of an antisense agent (Table 4) and RNase H cleaves the RNA at the desired site. […] Additional control experiments were completed in which the RNA was mutated to remove 8's binding site and the corresponding complementary oligonucleotide to induce RNase H cleavage.
as §1

[2] = test system: BP-SLI RNA (mutated SL I); assay: Oligonucleotide profiling in vitro, control RNA mutated to remove 8's binding site; assay type: biochemical, Hepatitis C virus; conditions: complementary oligonucleotide
Description: as §2, §1

[3] = test system: SL I site of HCV RNA in replicon cells; assay: Oligonucleotide profiling of target engagement in cells by RT-qPCR; assay type: cell-based, Hepatitis C virus
Description: Given these favorable results in vitro, the competitive cleaving approach was used to map cellular ligand binding sites. […] Previous approaches to map small molecule-RNA binding sites, such as Chemical Cross-Linking and Isolation by Pull-down (Chem-CLIP)59-61 and Small Molecule Nucleic Acid Profiling by Cleavage Applied to RNA (Ribo-SNAP)61, require the synthesis of derivatives of the lead molecules that allow them to cross-link or cleave and RNA target, respectively. […] Guan, L. and Disney, M. D. (2012). Recent advances in developing small molecules targeting RNA. ACS Chem. Biol. 7, 73-86. • 2. Thomas, J. R. and Hergenrother, P. J. (2008). Targeting RNA with small molecules. Chem. Rev. 108, 1171-1224. • 3. Blount, K. F. and Breaker, R. R. (2006). Riboswitches as antibacterial drug targets. Nat. Biotechnol. 24, 1558-1564. • 4. Tenson, T. and Mankin, A. (2006). Antibiotics and the ribosome. Mol. Microbiol. 59, 1664-1677. • 5. Schlunzen, F., Zarivach, R., Harms, J., Bashan, A., Tocilj, A., Albrecht, R., Yonath, A. and Franceschi, F. (2001). Structural basis for the interaction of antibiotics with the peptidyl transferase centre in eubacteria. Nature 413, 814-821. • 6. Hermann, T. (2016). Small molecules targeting viral rna. Wiley Interdiscip. Rev. RNA 7, 726-743. • 7. Ohgushi, M., Kuroki, S., Fukamachi, H., O'Reilly, L. A., Kuida, K., Strasser, A. and Yonehara, S. (2005). […]

Sequence of CHK1 (O14757 whole entry): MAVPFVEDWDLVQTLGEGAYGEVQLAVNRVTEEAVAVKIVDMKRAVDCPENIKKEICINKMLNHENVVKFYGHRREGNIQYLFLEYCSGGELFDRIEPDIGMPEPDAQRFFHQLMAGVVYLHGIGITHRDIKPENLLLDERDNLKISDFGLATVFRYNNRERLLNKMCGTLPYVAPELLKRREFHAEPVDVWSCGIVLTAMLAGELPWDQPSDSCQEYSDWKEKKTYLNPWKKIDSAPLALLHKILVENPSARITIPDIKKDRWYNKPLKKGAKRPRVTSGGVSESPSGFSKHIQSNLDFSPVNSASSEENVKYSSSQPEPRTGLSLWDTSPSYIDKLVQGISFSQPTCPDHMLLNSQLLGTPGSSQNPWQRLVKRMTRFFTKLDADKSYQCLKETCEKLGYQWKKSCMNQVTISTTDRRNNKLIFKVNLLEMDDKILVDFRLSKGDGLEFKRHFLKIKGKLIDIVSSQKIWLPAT

## O=C(Nc1ccc(C2=NCCN2)cc1)c1cc(C(=O)Nc2ccc(C3=NCCN3)cc2)cc(C(=O)Nc2ccc(C3=NCCN3)cc2)c1 [Compound 8]
CHK1
  inhibition of CHK1 in vitro: inhibited
[1]
  inhibition of antisense/RNase H-mediated cleavage of SL I in vitro: limited the ability of the antisense to mediate cleavage of the target
[2]
  effect on antisense/RNase H cleavage of mutated RNA: the extent and pattern of cleavage were similar in the absence and the presence of compound 8
[3]; Control ASO complementary to a downstream site
  rescue of ASO-induced cleavage in cells: does not rescue cleavage
[3]; antisense oligonucleotide overlapping the 8-binding site (SL I ASO)
  inhibition of ASO-induced cleavage in cells: inhibited cleavage
